Eleven molecules from patent publication US20230131899A1, “INHIBITORS OF MICROBIALLY INDUCED AMYLOID” (Axial Therapeutics, Inc., priority 2020, published 2023) can be followed below.

SMILES strings stand for the structures. Read-outs that look alike come from different tables or passages of the source.

The target of this test is T1, E. coli CsgA (Escherichia coli, UniProt P28307).
T1 construct: made in house; host or cells: E. coli NEB 3016 slyD::kan, pET11d
Briefly: In vitro ThioflavinT assay of CsgA aggregation (CsgA ThT Assay). Type of test: biochemical. Particulars: for remaining activity at 25 µM: compound 25 μM; for remaining activity at 100 µM: compound 100 μM. The method, then:
In vitro ThioflavinT assay to determine effects of compounds on CsgA aggregation. To assess the effects of compounds on aggregation of E. coli CsgA, a cell-free assay was performed using purified CsgA and Thioflavin T. In the assay, histidine-tagged CsgA was over-expressed in E. coli NEB 3016 slyD::kan cells harboring a pET11d vector containing a C-terminal 6× His tag. Following growth in rich media, CsgA production is induced at an OD600 of approximately 1.0 by addition of 0.5 mM IPTG (isopropyl beta-D-1-thiogalactopyranoside) followed by incubation at 37° C. for 1-4 hours with shaking at 200-250 rpm. Bacteria were resuspended in 8 M guanidine hydrochloride in 50 mM potassium phosphate buffer, pH 7.3 and lysed by sonication on ice using three 20 second intervals. The resulting lysate was incubated on a platform rocker for 1 hour at room temperature. After centrifugation at 10,000×g for 20 minutes, the supernatant was further sonicated on ice for three 20 second intervals and then incubated with nickel-nitrilotriacetic acid resin (Sigma) at room temperature for 1 hour in a 50 mL conical tube on a platform rocker. The resin was washed and pelleted 5 times with 45 mL 8 M guanidine in 50 mM potassium phosphate buffer pH 7.3. The resin was further washed and pelleted two times with 8 M guanidine hydrochloride in 50 mM potassium phosphate buffer pH 7.3 containing 12.5 mM imidazole. Purified CsgA protein was eluted two times with 5 mL of 6-8 M guanidine hydrochloride in 50 mM potassium phosphate buffer, pH 7.3 containing 250 mM imidazole. The eluted protein was aliquoted with 150 μL per aliquot, snap frozen in liquid nitrogen, and stored at −80 C. In order to obtain monomeric CsgA, the purified CsgA protein was thawed and passed through two pre-chilled desalting columns (Zeba) to remove imidazole and guanidine. The buffer exchanged protein was loaded onto a 30-kDa centrifugal filter unit (Amicon) and spun for 30 minutes at 7500×g to remove dimers and other oligomers. Protein concentration was assessed by the NanoDrop technique (Thermo Scientific), as is familiar to one skilled in the art. The CsgA aggregation assay was conducted in 96-well black non-binding surface or white untreated microplates with 20-40 μM ThioflavinT, 50 mM potassium phosphate buffer pH 7.3, 1% DMSO, CsgA at 2-20 μM, and compounds at 3.125-200 uM. The vehicle control wells contain all components of the assay except test compounds and represent the level of CsgA aggregation in the absence of any inhibitor or accelerator. Plates were incubated at room temperature in a Tecan Nano F200 plate reader with excitation at 438 nm using a 439 nm filter with a bandwidth of 8 nm, and emission at 495 nm with a 490 nm filter with a bandwidth of 10 nm, or in a SpectraMax M5, SpectraMax M2 or SpectraMax® i3X (Molecular Devices, San Jose, Calif.) spectrophotometer with excitation at 438 nm and emission at 495 nm. During the assay, plates were shaken initially for 5 seconds and subsequently for 3 seconds prior to fluorescent readings. Readings were performed every 15 minutes for up to 1005 minutes. The effect of compounds on CsgA aggregation in the assay was determined with data from 0-17 hours. Fluorescence values for each compound with CsgA were first adjusted by subtracting the average fluorescence of the compound in the absence of CsgA or in the presence of CsgA and compound at time 0 or 15 minutes. The data were analyzed in several ways:
1. The adjusted ThT fluorescence values were normalized by dividing them by the average fluorescence in the vehicle control wells containing CsgA. The median normalized fluorescence from 6-6.5 hours or 8-9 hours with the compound was expressed as a percentage of the median fluorescence observed in vehicle controls over the same time period. Percent inhibition of CsgA aggregation by a compound was determined by subtracting the percent average fluorescence with the compound relative to the vehicle controls from 100%. […]

Setting [1] is: read-out: CsgA ThT Assay (10 μM CsgA) % Control AUC at 1005 minutes, 25 μM (activity range), CsgA 10 μM, black plates, 1005 minutes, class symbol.
Setting [2] is: read-out: CsgA ThT Assay (10 μM CsgA) % Control AUC at 1005 minutes, 25 μM, mean AUC as % of DMSO control, CsgA 10 μM, black plates, 1005 minutes.
[3] abbreviates: read-out: CsgA ThT Assay (10 μM CsgA) % Control AUC at 1005 minutes, 100 μM (activity range), CsgA 10 μM, black plates, 1005 minutes, class symbol.
Where [4] appears, read: read-out: CsgA ThT Assay (10 μM CsgA) % Control AUC at 1005 minutes, 100 μM, mean AUC as % of DMSO control, CsgA 10 μM, black plates, 1005 minutes.
Setting [5] is: read-out: CsgA ThT Assay (2 μM CsgA) % Control Bmax 25 μM, activity range, class symbol, CsgA 2 μM, white plates.
The mark [6] stands for this setting: read-out: CsgA ThT Assay (2 μM CsgA) % Control Bmax 25 μM, mean Bmax as percentage of DMSO control, CsgA 2 μM, white plates.
The mark [7] stands for this setting: read-out: CsgA ThT Assay (2 μM CsgA) % Control Bmax 100 μM, activity range, class symbol, CsgA 2 μM, white plates.
The mark [8] stands for this setting: read-out: CsgA ThT Assay (2 μM CsgA) % Control Bmax 100 μM, mean Bmax as percentage of DMSO control, CsgA 2 μM, white plates.

T1 sequence (P28307 23-151): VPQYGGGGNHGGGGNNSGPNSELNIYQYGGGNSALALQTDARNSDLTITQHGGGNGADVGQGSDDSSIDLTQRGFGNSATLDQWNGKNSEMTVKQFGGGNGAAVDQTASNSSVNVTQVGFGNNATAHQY

With `O=C(O)[C@@H]1CNS(=O)(=O)c2c(-c3cccc(C(F)(F)F)c3)c(Cc3cccc4ccccc34)cc(=O)n21` (single isomer, unassigned) [Compound 009a], the remaining activity at 25 µM under setting [1] lay in the range of 31 to 60% and the remaining activity at 25 µM under setting [2] turned out to be 46%. For the same molecule, the remaining activity at 100 µM is 11 to 31% under setting [3] and 17% under setting [4].
With `O=C(O)[C@H]1CNS(=O)(=O)c2c(-c3cccc(C(F)(F)F)c3)c(Cc3cccc4ccccc34)cc(=O)n21` (single isomer, unassigned) [Compound 009b], the remaining activity at 25 µM under setting [1] was greater than 60% and the remaining activity at 25 µM under setting [2] amounted to 67%. The remaining activity at 100 µM reads like this: under setting [3], 31 to 60%; under setting [4], 37%.
As to `O=C(O)CCCCN1CC(C(=O)O)n2c(c(-c3cccc(C(F)(F)F)c3)c(Cc3cccc4ccccc34)cc2=O)S1(=O)=O` (centres unmarked) [Compound 039, 2-(4-carboxybutyl)-8-(naphthalen-1-ylmethyl)-6-oxo-9-(3-(trifluoromethyl)phenyl)-3,4-dihydro-2H,6H-pyrido[1,2-e][1,2,5]thiadiazine-4-carboxylic acid 1,1-dioxide], the remaining activity at 25 µM under setting [1] is greater than 60% and the remaining activity at 25 µM under setting [2] turned out to be 92%. In addition, the remaining activity at 100 µM was 11 to 31% under setting [3] and 24% under setting [4].
With `CCc1c(Cc2cccc3ccccc23)c(-c2cccc(C(F)(F)F)c2)c2n(c1=O)C(C(=O)O)CN(C)S2(=O)=O` (centres unmarked) [Compound 076, 7-ethyl-2-methyl-8-(naphthalen-1-ylmethyl)-6-oxo-9-(3-(trifluoromethyl)phenyl)-3,4-dihydro-2H,6H-pyrido[1,2-e][1,2,5]thiadiazine-4-carboxylic acid 1,1-dioxide], the remaining activity at 25 µM is 11 to 31% under setting [1] and 17% under setting [2]. Moreover, the remaining activity at 100 µM runs as follows: under setting [3], 11 to 31%; under setting [4], 14%.
Take `O=C(O)C1CN(C(=O)OCc2ccccc2)c2c(-c3cccc(C(F)(F)F)c3)c(Cc3cccc4ccccc34)cc(=O)n21` (centres unmarked) [Compound 103, 1-((benzyloxy)carbonyl)-7-(naphthalen-1-ylmethyl)-5-oxo-8-(3-(trifluoromethyl)phenyl)-1,2,3,5-tetrahydroimidazo[1,2-a]pyridine-3-carboxylic acid]: the remaining activity at 25 µM is greater than 60% under setting [1] and 95% under setting [2]. The remaining activity at 100 µM is, setting by setting: under setting [3], greater than 60%; under setting [4], 102%.
As for `Cn1cc(C(=O)O)n2c(=O)cc(Cc3cccc4ccccc34)c(-c3cccc(C(F)(F)F)c3)c12` [Compound 111, 1-methyl-7-(naphthalen-1-ylmethyl)-5-oxo-8-(3-(trifluoromethyl)phenyl)-1,5-dihydroimidazo[1,2-a]pyridine-3-carboxylic acid], the remaining activity at 25 µM under setting [1] was greater than 60% and the remaining activity at 25 µM under setting [2] came to 98%. Besides, the remaining activity at 100 µM is, setting by setting: under setting [3], greater than 60%; under setting [4], 95%.
In the case of `CCCN1CC(C(=O)O)n2c(c(-c3cccc(C(F)(F)F)c3)c(Cc3cccc4ccccc34)c(OCc3ccccc3)c2=O)S1(=O)=O` (centres unmarked) [Compound 146, 7-(benzyloxy)-8-(naphthalen-1-ylmethyl)-6-oxo-2-propyl-9-(3-(trifluoromethyl)phenyl)-3,4-dihydro-2H,6H-pyrido[1,2-e][1,2,5]thiadiazine-4-carboxylic acid 1,1-dioxide], the remaining activity at 25 µM is greater than 60% under setting [5] and 113% under setting [6]. Moreover, the remaining activity at 100 µM under setting [7] was greater than 60% and the remaining activity at 100 µM under setting [8] amounted to 63%.
For `CCCOc1c(Cc2cccc3ccccc23)c(-c2cccc(C(F)(F)F)c2)c2n(c1=O)C(C(=O)O)CN(CCC)S2(=O)=O` (centres unmarked) [Compound 147, 8-(naphthalen-1-ylmethyl)-6-oxo-7-propoxy-2-propyl-9-(3-(trifluoromethyl)phenyl)-3,4-dihydro-2H,6H-pyrido[1,2-e][1,2,5]thiadiazine-4-carboxylic acid 1,1-dioxide], the remaining activity at 25 µM runs as follows: under setting [5], greater than 60%; under setting [6], 101%. The remaining activity at 100 µM under setting [7] is greater than 60% and the remaining activity at 100 µM under setting [8] stood at 139%.
Turning to `CCCN1CC(C(=O)O)n2c(c(-c3cccc(C(F)(F)F)c3)c(Cc3cccc4ccccc34)c(OC(C)C)c2=O)S1(=O)=O` (centres unmarked) [Compound 148, 7-isopropoxy-8-(naphthalen-1-ylmethyl)-6-oxo-2-propyl-9-(3-(trifluoromethyl)phenyl)-3,4-dihydro-2H,6H-pyrido[1,2-e][1,2,5]thiadiazine-4-carboxylic acid 1,1-dioxide], the remaining activity at 25 µM was greater than 60% under setting [5] and 79% under setting [6]. For the same molecule, the remaining activity at 100 µM is, setting by setting: under setting [7], greater than 60%; under setting [8], 113%.
`CCCN1CC(C(=O)O)n2c(c(-c3cccc(C(F)(F)F)c3)c(Cc3cccc4ccccc34)c(NC(C)C)c2=O)S1(=O)=O` (centres unmarked) [Compound 149, 7-(isopropylamino)-8-(naphthalen-1-ylmethyl)-6-oxo-2-propyl-9-(3-(trifluoromethyl)phenyl)-3,4-dihydro-2H,6H-pyrido[1,2-e][1,2,5]thiadiazine-4-carboxylic acid 1,1-dioxide]: the remaining activity at 25 µM is, setting by setting: under setting [5], greater than 60%; under setting [6], 98%. In addition, the remaining activity at 100 µM reads like this: under setting [7], greater than 60%; under setting [8], 115%.
Take `O=C(O)C1CN(Cc2ccccc2)c2c(-c3cccc(C(F)(F)F)c3)c(CN3CCCCC3)c(Cl)c(=O)n21` (centres unmarked) [Compound 218, 1-benzyl-6-chloro-5-oxo-7-(piperidin-1-ylmethyl)-8-(3-(trifluoromethyl)phenyl)-1,2,3,5-tetrahydroimidazo[1,2-a]pyridine-3-carboxylic acid]: the remaining activity at 25 µM was greater than 60% under setting [5] and 115% under setting [6]. Moreover, the remaining activity at 100 µM is, setting by setting: under setting [7], greater than 60%; under setting [8], 109%.
